# Measurements from US20240174680A1, “CDK2 INHIBITORS AND METHODS OF USING THE SAME” (Cedilla Therapeutics, Inc., priority 2021, published 2024).
# Molecular target: CDK2/Cyclin E1 (Homo sapiens, UniProt P24941)
# Assay: CDK2/Cyclin E1 Caliper LabChip EZ Reader mobility shift assay
# Assay type: biochemical
# Design: purchased Eurofins 14-475
# Settings: read-out: Caliper Assay (CDK2/CCNE1): IC50
# Outline: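 Substrate-to-product conversion of fluorescent peptide (1.5 μM final) read by capillary electrophoresis after 100 min reaction, EDTA-quenched. Enzyme (2.5 nM final) and ATP (100 μM final) were preincubated 30 min with inhibitor dilutions first. % activity vs concentration fitted four-parameter for IC50.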
row,SMILES,IC50
1,CNC(=O)[C@@H](NC(=O)[C@H]1CN(C(=O)c2sc(COC)nc2C)CC12CN(C(=O)[C@H]1CC1(C)C)C2)[C@@H](C)OCC1CCCCC1 [I-162B],> 10 µM
2,CNC(=O)[C@@H](NC(=O)[C@@H]1CN(C(=O)Cc2cn[nH]c2)CC12CN(C(=O)[C@H]1CC1(C)C)C2)[C@@H](C)OCc1ccccc1 [I-358],> 10 µM
3,COC[C@H]1CCCN(C(=O)[C@@H](NC(=O)[C@@H]2CN(C(=O)c3cncs3)CC23CN(C(=O)[C@H]2CC2(C)C)C3)[C@@H](C)OCc2ccc(Cl)cc2F)C1 [I-317],≤ 0.01 µM
4,C[C@@H](OCC1CCCCC1)[C@H](NC(=O)[C@@H]1CN(C(=O)c2cncs2)CC12CN(C(=O)[C@H]1CC1(C)C)C2)C(=O)N1CCC(c2cnc[nH]2)CC1 [I-406],≤ 0.01 µM
5,Cc1nc(C)c(C(=O)N2C[C@@H](C(=O)N[C@H](C(=O)N3CCC(OC(F)(F)F)CC3)[C@@H](C)OCC34CCC(CC3)OC4)C3(C2)CN(C(=O)[C@H]2CC2(C)C)C3)s1 [I-455],0.01 to 0.1 µM
6,COC[C@H]1CCCN(C(=O)[C@@H](NC(=O)[C@@H]2CN(C(=O)c3cncs3)CC23CN(C(=O)C(C)(C)C2CC2)C3)[C@@H](C)OCC2CCCCC2)C1 [I-389],≤ 0.01 µM
7,CC1(C)C[C@@H]1C(=O)N1CC2(CN(C(=O)c3cnn(Cc4ccccc4)c3)C[C@@H]2C(=O)NC2CCCN(C(=O)c3ccccc3)C2)C1 (some centres unmarked) [I-59B],> 10 µM
8,CNC(=O)[C@@H](NC(=O)[C@@H]1CN(C(=O)c2cnn(Cc3ccccc3)c2)CC12CN(C(=O)[C@H]1CC1(C)C)C2)[C@@H](C)OCC1CCCCCC1 [I-166A],≤ 0.01 µM
9,"CNC(=O)[C@@H](NC(=O)[C@@H]1CN(C(=O)c2cnn(Cc3ccccc3)c2)CC12CN(C(=O)NC1CC1)C2)[C@@H](C)OCC1CCCCC1 [I-268, (S)-6-(1-benzyl-1H-pyrazole-4-carbonyl)-N8-((2S,3R)-3-(cyclohexylmethoxy)-1-(methylamino)-1-oxobutan-2-yl)-N2-cyclopropyl-2,6-diazaspiro[3.4]octane-2,8-dicarboxamide]",> 10 µM
10,C[C@@H](OCC1CCCCC1)[C@H](NC(=O)[C@H]1CN(C(=O)c2cnn(Cc3ccccc3)c2)CC12CN(C(=O)[C@H]1CC1(C)C)C2)C(=O)N1CCOCC1 [I-152B],1 to 10 µM
11,COC[C@H]1CCCN(C(=O)[C@@H](NC(=O)[C@@H]2CN(C(=O)c3cncs3)CC23CN(C(=O)[C@H]2CC2(C)C)C3)[C@@H](C)OCc2ccc(C(F)(F)F)cc2)C1 [I-319],≤ 0.01 µM
12,CC1(C)C[C@@H]1C(=O)N1CC2(CN(C(=O)c3cnn(Cc4ccccc4)c3)C[C@@H]2C(=O)N[C@@H]2CC[C@@H]2O)C1 [I-201A],> 10 µM
13,"CNC(=O)[C@@H](NC(=O)[C@@H]1CN(C(=O)c2cnn(Cc3ccccc3)c2)CC12CN(C(=O)[C@H]1CC1(C)C)C2)C(C)(C)S(=O)(=O)Cc1ccccc1 [I-199, (S)-6-(1-benzyl-1H-pyrazole-4-carbonyl)-N—((R)-3-(benzylsulfonyl)-3-methyl-1-(methylamino)-1-oxobutan-2-yl)-2-((S)-2,2-dimethylcyclopropane-1-carbonyl)-2,6-diazaspiro[3.4]octane-8-carboxamide]",0.1 to 1 µM
14,CNC(=O)[C@@H](NC(=O)[C@@H]1CN(C(=O)c2cnn(Cc3ccccc3)c2)CC12CN(C(=O)[C@H]1CC1(C)C)C2)C1(OCC2CCCCC2)CC1 [I-396],≤ 0.01 µM
15,CC1(C)C[C@@H]1C(=O)N1CC2(CN(C(=O)c3cnn(Cc4ccccc4)c3)C[C@H]2C(=O)N[C@H]2CCCN(C(=O)c3ccccc3)C2)C1 [I-83A],1 to 10 µM
16,COC[C@H]1CCCN(C(=O)[C@@H](NC(=O)[C@@H]2CN(C(=O)c3cncs3)CC23CN(C(=O)[C@H]2CC2(C)C)C3)[C@@H](C)O[C@@H](C)C2CCCCC2)C1 [I-467],≤ 0.01 µM
17,C[C@@H](OCC1CCCCC1)[C@H](NC(=O)[C@@H]1CN(C(=O)c2ccn[nH]2)CC12CN(C(=O)[C@H]1CC1(C)C)C2)C(=O)N1CCCCC1 [I-216],0.1 to 1 µM
18,CCCC(=O)N1CC2(C1)CN(C(=O)c1cnn(Cc3ccccc3)c1)C[C@H]2C(=O)N[C@H](C(=O)NC)[C@@H](C)OCc1ccccc1 [I-60A],1 to 10 µM
19,COC[C@H]1CCCN(C(=O)[C@@H](NC(=O)C2CN(C(=O)c3cncs3)CC23CN(C(=O)[C@H]2CC2(C)C)C3)[C@@H](C)OCC2CCCCC2)C1 (some centres unmarked) [I-196 mixture],≤ 0.01 µM
20,C[C@@H](OCC1CCCCC1)[C@@H](COC1CCC(F)(F)CC1)NC(=O)[C@@H]1CN(C(=O)c2cnn(Cc3ccccc3)c2)CC12CN(C(=O)[C@H]1CC1(C)C)C2 [I-271],≤ 0.01 µM
21,CC1(C)C[C@@H]1C(=O)N1CC2(CN(C(=O)c3cnn(Cc4ccccc4)c3)C[C@H]2C(=O)NC[C@H]2CC[C@H](C)CC2)C1 [I-382],1 to 10 µM
22,CNC(=O)[C@@H](NC(=O)[C@@H]1CN(C(=O)c2cncs2)CC12CN(Cc1ccco1)C2)[C@@H](C)OCC12CCC(CC1)OC2 [I-349],> 10 µM
23,CNC(=O)C(NC(=O)[C@@H]1CN(C(=O)c2cncs2)CC12CN(C(=O)[C@H]1CC1(C)C)C2)c1ccc(C)nn1 (some centres unmarked) [I-420],> 10 µM
24,CC1(C)C[C@@H]1C(=O)N1CC2(CN(C(=O)c3cnn(Cc4ccccc4)c3)C[C@H]2C(=O)N2CCO[C@@H](Cc3ccccc3)C2)C1 [I-210],> 10 µM
25,COC[C@H]1CCCN(C(=O)[C@@H](NC(=O)[C@@H]2CN(C(=O)c3cncs3)CC23CN(C(=O)[C@H]2CC2(C)C)C3)[C@@H](C)OC(C)C2CCCCC2)C1 (some centres unmarked) [I-374],≤ 0.01 µM

row,SMILES,IC50
1,C[C@@H](OCC1CCCCC1)[C@H](NC(=O)C1CN(C(=O)c2cnn(Cc3ccccc3)c2)CC12CN(C(=O)[C@H]1CC1(C)C)C2)C(=O)N1CC2(CCC2)C1 (some centres unmarked) [I-107],≤ 0.01 µM
2,CNC(=O)[C@@H](NC(=O)[C@@H]1CN(C(=O)c2cncs2)CC12CN(C(=O)[C@H]1CC1(C)C)C2)[C@@H](C)OC1CCCCC1 [I-290],0.1 to 1 µM
3,C[C@H](NC(=O)[C@@H]1CN(C(=O)c2cnn(Cc3ccccc3)c2)CC12CN(C(=O)[C@H]1CC1(C)C)C2)c1cccc(F)c1 [I-127A],1 to 10 µM
4,COC(=O)C1(NC(=O)[C@H]2CN(C(=O)c3cnn(Cc4ccccc4)c3)CC23CN(C(=O)[C@H]2CC2(C)C)C3)COC1 [I-142A],> 10 µM
5,C[C@@H](OCC1CCCCC1)[C@H](NC(=O)[C@@H]1CN(C(=O)c2ccns2)CC12CN(C(=O)[C@H]1CC1(C)C)C2)C(=O)N1CCCCC1 [I-217],≤ 0.01 µM
6,CNC(=O)[C@@H](NC(=O)[C@@H]1CN(C(=O)c2cncs2)CC12CN(CC(C)(C)C)C2)[C@@H](C)OCC12CCC(CC1)OC2 [I-347],> 10 µM
7,CNC(=O)[C@@H](NC(=O)[C@@H]1CN(C(=O)c2scnc2C(F)(F)F)CC12CN(C(=O)[C@H]1CC1(C)C)C2)[C@@H](C)OCC1CCCCC1 [I-163A],> 10 µM
8,CNC(=O)[C@@H](NC(=O)[C@@H]1CN(C(=O)c2cnn(Cc3ccccc3)c2)CC12CN(C(=O)[C@H]1CC1(C)C)C2)[C@@H](C)OCC(F)(F)F [I-204],1 to 10 µM
9,COC[C@H]1CCCN(C(=O)[C@@H](NC(=O)[C@@H]2CN(C(=O)c3cnn(Cc4ccccc4)c3)CC23CN(C(=O)[C@H]2CC2(C)C)C3)[C@@H](C)OC)C1 [I-283],1 to 10 µM
10,COC[C@H]1CCCN(C(=O)[C@@H](NC(=O)[C@@H]2CN(C(=O)c3cncs3)CC23CN(C(=O)[C@H]2CC2(C)C)C3)[C@@H](C)OCc2ccc(OC(F)(F)F)cc2)C1 [I-320],≤ 0.01 µM
11,CNC(=O)[C@@H](NC(=O)[C@@H]1CN(C(=O)c2cnn(Cc3ccccc3)c2)CC12CN(C(=O)[C@H]1CC1(C)C)C2)[C@@H](C)OC[C@H]1CC[C@@H](O)CC1 [I-424],0.01 to 0.1 µM
12,CNC(=O)[C@@H](NC(=O)[C@H]1CN(C(=O)c2sc(Cl)nc2C)CC12CN(C(=O)[C@H]1CC1(C)C)C2)[C@@H](C)OCC1CCCCC1 [I-208B],0.1 to 1 µM
13,C[C@@H](NC(=O)[C@H]1CN(C(=O)c2cnn(Cc3ccccc3)c2)CC12CN(C(=O)[C@H]1CC1(C)C)C2)c1cccc(F)c1 [I-128B],> 10 µM
14,CNC(=O)[C@@H](NC(=O)[C@@H]1CN(C(=O)c2cnn(Cc3ccccc3)c2)CC12CN(C(=O)CC1CC1)C2)[C@@H](C)OCC1CCCCC1 [I-56A],0.1 to 1 µM
15,CNC(=O)[C@@H](NC(=O)[C@H]1CN(C(=O)c2cnn(Cc3ccccc3)c2)CC12CN(C(=O)C(C)C)C2)[C@@H](C)OCc1ccccc1 [I-54B],> 10 µM
16,C[C@@H](OCC1CCC(F)(F)CC1)[C@H](NC(=O)[C@@H]1CN(C(=O)c2cnn(Cc3ccc(F)cc3)c2)CC12CN(C(=O)[C@H]1CC1(C)C)C2)C(N)=O [I-203],≤ 0.01 µM
17,CNC(=O)[C@@H](NC(=O)[C@H]1CN(Cc2n[nH]c3ccccc23)CC12CN(C(=O)[C@H]1CC1(C)C)C2)[C@@H](C)OCc1ccccc1 [I-143],> 10 µM
18,CC1(C)C[C@@H]1C(=O)N1CC2(CN(C(=O)c3cnn(Cc4ccccc4)c3)C[C@H]2C(=O)NC2CCNC(=O)C2)C1 (some centres unmarked) [I-223],> 10 µM
19,CNC(=O)[C@@H](NC(=O)[C@@H]1CN(C(=O)c2cnn(Cc3ccccc3)c2)CC12CN(C(=O)[C@H]1CC1(C)C)C2)[C@@H](C)OCC1C[C@@H](C)C[C@@H](C)C1 (some centres unmarked) [I-249],0.01 to 0.1 µM
20,Cc1n[nH]c(C(=O)N2C[C@@H](C(=O)N[C@H](C(=O)N3CCCCC3)[C@@H](C)OCC3CCCCC3)C3(C2)CN(C(=O)[C@H]2CC2(C)C)C3)n1 [I-241],1 to 10 µM
21,CNC(=O)[C@@H](NC(=O)[C@H]1CN(C(=O)c2cnn(Cc3ccc(F)cc3)c2)CC12CN(C(=O)[C@H]1CC1(C)C)C2)[C@@H](C)OCC1CCC(F)(F)CC1 [I-167],0.1 to 1 µM
22,CNC(=O)[C@@H](NC(=O)[C@@H]1CN(C(=O)c2sc(Cl)nc2C)CC12CN(C(=O)[C@H]1CC1(C)C)C2)[C@@H](C)OCC1CCCCC1 [I-208A],0.01 to 0.1 µM
23,C[C@@H](OCC1CCC(F)(F)CC1)[C@H](NC(=O)[C@@H]1CN(C(=O)c2cncs2)CC12CN(C(=O)[C@H]1CC1(C)C)C2)C(C)(C)O [I-313],≤ 0.01 µM
24,CNC(=O)[C@@H](NC(=O)[C@H]1CN(C(=O)c2cnn(Cc3ccccc3)c2)CC12CN(C(=O)Cc1ccccc1)C2)[C@@H](C)OCc1ccccc1 [I-25B],> 10 µM
25,CN(C)C(=O)C(NC(=O)[C@@H]1CN(C(=O)c2cncs2)CC12CN(C(=O)C(C)(C)C1CC1)C2)c1cccc(C2CCOCC2)n1 (some centres unmarked) [I-340],1 to 10 µM
